BindingDB's records for patent US20250002452 (Icagen, 2025)

Target: Potassium voltage-gated channel subfamily KQT member 2 (Homo sapiens, UniProt O43526)
Test: SyncroPatch 384 (Nanion) High Throughput Electrophysiology Assay
Excerpt: Solutions were of the following composition:Earle's balanced salt solution (in mM): 135 NaCl, 5.4 KCl, 5 Glucose, 2 CaCl2), 1 MgCl2, 5 HEPES, pH 7.4. Seal enhancer solution (in mM): 90 NaCl, 3 KCl, 35 CaCl2), 10 MgCl2, 10 HEPES, pH 7.4. Extracellular recording solution (in mM): 71 NaCl, 70 NMDG, 13 KCl, 5 Glucose, 2 CaCl2), 1 MgCl2, 10 HEPES, pH 7.4. Intracellular recording solution (in mM): 130 KF, 20 KCl, 4 EGTA, 10 HEPES, 2 EDTA, 0.01 Escin, pH 7.2.

Potassium voltage-gated channel subfamily KQT member 2, sequence (O43526 whole entry): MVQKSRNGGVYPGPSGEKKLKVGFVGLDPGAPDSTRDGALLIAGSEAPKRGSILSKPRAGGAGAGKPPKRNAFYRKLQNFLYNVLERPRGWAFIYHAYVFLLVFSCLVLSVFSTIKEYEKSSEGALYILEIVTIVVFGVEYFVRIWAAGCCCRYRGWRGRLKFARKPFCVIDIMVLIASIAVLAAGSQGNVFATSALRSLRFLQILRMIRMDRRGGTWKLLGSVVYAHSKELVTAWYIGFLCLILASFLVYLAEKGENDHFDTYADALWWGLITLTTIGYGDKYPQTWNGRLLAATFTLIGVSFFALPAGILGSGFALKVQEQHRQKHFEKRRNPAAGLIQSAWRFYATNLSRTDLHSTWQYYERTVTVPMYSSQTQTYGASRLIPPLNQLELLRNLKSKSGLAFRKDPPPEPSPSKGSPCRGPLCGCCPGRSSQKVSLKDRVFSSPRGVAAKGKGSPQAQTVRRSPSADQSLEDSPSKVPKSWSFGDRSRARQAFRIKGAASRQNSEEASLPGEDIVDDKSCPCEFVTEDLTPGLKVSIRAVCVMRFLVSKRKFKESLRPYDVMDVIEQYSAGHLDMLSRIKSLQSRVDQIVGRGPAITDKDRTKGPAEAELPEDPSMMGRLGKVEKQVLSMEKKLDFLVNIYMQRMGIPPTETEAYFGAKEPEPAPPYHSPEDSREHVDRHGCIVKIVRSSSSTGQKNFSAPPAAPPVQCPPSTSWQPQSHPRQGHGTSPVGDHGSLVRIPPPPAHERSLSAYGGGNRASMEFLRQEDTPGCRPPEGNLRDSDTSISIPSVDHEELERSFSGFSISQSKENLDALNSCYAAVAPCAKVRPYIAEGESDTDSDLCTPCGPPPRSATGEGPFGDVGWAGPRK

- EC50: 180 nM
Structure (SMILES): CC(NC(=O)NC12CC(F)(C1)C2)c1cccc(OC(F)F)c1 (stereo unspecified) [US20250002452, Example 38]
